This is an account of results in paper PMC8557901 (Microbiology Spectrum, 2021).

By EC50 is commonly meant the concentration needed to bring the measured effect to its halfway point. The CC50 is the concentration giving 50% cytotoxicity.

Data set [1] relates to P. falciparum F32-TEM (artemisinin-sensitive). Briefly: Standard in vitro chemosensitivity assay (hypoxanthine uptake), F32-TEM. Particulars: Plasmodium falciparum, F32, 48 h, read-out: Mean EC50 ± SD. The data set is classed as cell-based. The procedure:
(§1) The Plasmodium falciparum artemisinin-resistant strain F32-ART5 and its twin artemisinin-sensitive line F32-TEM ([30], [31]) were cultivated at 37°C with 5% CO2 in human red blood cells (EFS [French Blood Bank]) diluted to 2% hematocrit in RPMI 1640 medium supplemented with 5% human serum (EFS) as previously reported ([47]).
In vitro susceptibility of P. falciparum parasites was determined by using the standard hypoxanthine uptake inhibition assay as described previously ([51]) with some modifications ([52]). After D-sorbitol treatment, parasites synchronized at the ring stage were exposed for 48 h, with [^3H]hypoxanthine (Perkin Elmer, France), to a range of concentrations of the different tested compounds. […] Each result represents 3 independent experiments.

The subject of data set [2] is P. falciparum F32-ART5 and F32-TEM. Briefly: Recrudescence assay F32-ART5 versus F32-TEM. Format: cell-based, Plasmodium falciparum. Particulars: 48 h drug exposure; M1 2.5 and 10 μM; artemisinin 18 μM. The procedure: as §1
A recrudescence assay was performed to evaluate the ability of the F32-ART5 parasite line to survive drug exposure in comparison to that of the F32-TEM parasite line ([30], [31]) in order to evaluate the risk of cross-resistance between artemisinin and M1. D-Sorbitol-synchronized ring-stage parasites at 3% parasitemia (2% hematocrit) were exposed to the drug for 48 h. After drug exposure, parasite cultures were washed with RPMI 1640 medium and replaced in normal drug-free culture conditions. The time to parasite recrudescence was determined as the time required to reach initial parasitemia. […] Each experiment, performed in parallel for F32-ART5 and F32-TEM cultivated under the same conditions to generate paired results, was carried out at least three times independently and data statistically analyzed.
A statistical analysis (log-rank test) was carried out on data from the recrudescence assay and the QSA using a Kaplan-Meier survival analysis considering censored data. The final event was defined as the time necessary for cultures to reach initial parasitemia. […]

The subject of data set [3] is P. yoelii in HepG2-CD81 cells. The data set is described as follows: Hepatic stage of P. yoelii in HepG2-CD81 cells. The data set is classed as cell-based. Particulars: Plasmodium yoelii; hepatic schizonts. The procedure: Hepatocytes were seeded into collagen-coated black 96-well plates and maintained at 37°C in 5% CO2 in complete medium. […] The infected culture plates were centrifuged for 10 min at 900 × g, allowing fast parasite sedimentation, and further incubated with serial dilutions of M1. […] DMSO was used as a negative control. The number, size, and shape of the parasites were determined using a CellInsight high-content screening platform equipped with Studio HCS software (ThermoFisher Scientific). The parasite immunostaining was done using an […]70 antibody raised in mice and a secondary anti-mouse antibody coupled to Alexa Fluor 488 ([43]). […] Thirty-seven images, representing more than 95% of the total bottom surface area of a culture well in 96-well plates, were captured for analysis. The custom script used for counting and measuring parasites first required identification of the objects based on a fluorescence intensity threshold. The object identity was then further validated based on size and morphological (shape) criteria. The presence of DAPI-associated fluorescence in the selected objects allowed their final selection and the rejection of false positives. […] The parasitic size reduction was calculated on the average object area using the total surface area of each selected object (μm^2).

Data set [4] is described as follows: Cytotoxicity on HepG2 cell line (MTT). The data set is classed as cell-based. As to conditions: human, HepG2 cells. The method, then:
The evaluation of the cytotoxicity of the tested molecules on the HepG2 cell line was performed according to the method of Mosman ([42]) with slight modifications. […] Triplicate assays were performed for each sample. Each well was then examined under a microscope to detect possible precipitate formation before the medium was aspirated from the wells. An amount of 100 μl of MTT solution (0.5 mg/ml in medium without FBS) was then added to each well. […] After this time, the MTT solution was removed and DMSO (100 μl) was added to dissolve the resulting blue formazan crystals. Plates were shaken vigorously (700 rpm) for 10 min. The absorbance was measured at 570 nm with 630 nm as the reference wavelength using a Tecan Infinite F-200 microplate reader. DMSO was used as a blank and doxorubicin as a positive control. Cell viability was calculated as the percentage compared to the control (cells incubated without compound). […] CC50 values represent the mean values calculated from three independent experiments.

A short description of data set [5]: Cytotoxicity on the MDCK renal cell line (MTT). The data set is classed as cell-based, canine. As to conditions: dog, MDCK cells. The procedure:
MDCK cell line (Madin-Darby Canine Kidney cells) was maintained at 37 °C, 5% CO2 with 90% humidity in DMEM supplemented with 5% fetal bovine serum, 1% L-glutamine (200 mM), penicillin (100 U/mL) and streptomycin (100 μg/mL) (complete medium). The evaluation of Gamhepathiopine cytotoxicity on this cell line was performed according to the method of Mosman with slight modifications. Briefly, 3.10^4 cells in 100 μL of complete medium were inoculated into each well of 96-well plates and incubated at 37 °C in a humidified 5% CO2. After 24 h incubation, to obtain adherent cells, 100 μL of medium with various concentrations of Gamhepathipoine dissolved in DMSO were added and refreshed on a daily basis for 72 h at 37 °C. Each sample was tested on 4 technical replicates. The MTT solution (100µL/well, 0.5 mg/mL in medium without FBS) was then added to each well. Cells were incubated for 4 h at 37 °C. The MTT solution was then removed and a mixture of DMSO/Ethanol (1:1; 100 μL/well) was added to dissolve the resulting blue formazan crystals. The absorbance was measured at 540 nm on a Flex Station Microplate Reader.

In a further data set the target is T1, hERG channel (Homo sapiens, UniProt Q12809).
T1 construct: purchased ThermoFischer PV5665
The data set is described as follows: Predictor hERG fluorescence polarization binding assay. As to conditions: 0.01 nM to 100 µM. The procedure:
hERG channel binding was determined with the PredictorTM hERG Fluorescence Polarization Assay (PV5665 ThermoFischer). Briefly, reagents were thawed, and were mixed by pipetting 20x with PredictorTM hERG membranes. The fluorescent tracer was diluted at 4 nM in the PredictorTM hERG buffer. […] The assay was performed in a 96-well Greiner microplate (675093 Dutscher). 25 µL of each concentration of M1 were dispensed into the plate. Then, 50 µL of the PredictorTM hERG membranes and 25 µL of the fluorescent tracer 4 nM were added. The plate was incubated at room temperature for 4 h. The fluorescence polarization measurements were made using a Synergy 2 microplate reader (Biotek Instrument, Colmar, France). Both parallel and perpendicular fluorescence were measured using 530/25 nm excitation and 590/35 nm emission filters with a 570 nm dichroic mirror. The gain was fixed at 110. A known hERG channel blocker (E-4031), provided by the kit, was assayed as positive reference. Both E-4031 and M1 were tested at final concentrations ranging from 0.01 nM to 100 µM. IC50 values were determined graphically by plotting the % inhibition versus the logarithm of 9 M1 concentrations in the assay solution using the GraphPad Prism software (version 6.01, GraphPad Software, La Jolla, CA, USA).

T1 sequence (Q12809 whole entry): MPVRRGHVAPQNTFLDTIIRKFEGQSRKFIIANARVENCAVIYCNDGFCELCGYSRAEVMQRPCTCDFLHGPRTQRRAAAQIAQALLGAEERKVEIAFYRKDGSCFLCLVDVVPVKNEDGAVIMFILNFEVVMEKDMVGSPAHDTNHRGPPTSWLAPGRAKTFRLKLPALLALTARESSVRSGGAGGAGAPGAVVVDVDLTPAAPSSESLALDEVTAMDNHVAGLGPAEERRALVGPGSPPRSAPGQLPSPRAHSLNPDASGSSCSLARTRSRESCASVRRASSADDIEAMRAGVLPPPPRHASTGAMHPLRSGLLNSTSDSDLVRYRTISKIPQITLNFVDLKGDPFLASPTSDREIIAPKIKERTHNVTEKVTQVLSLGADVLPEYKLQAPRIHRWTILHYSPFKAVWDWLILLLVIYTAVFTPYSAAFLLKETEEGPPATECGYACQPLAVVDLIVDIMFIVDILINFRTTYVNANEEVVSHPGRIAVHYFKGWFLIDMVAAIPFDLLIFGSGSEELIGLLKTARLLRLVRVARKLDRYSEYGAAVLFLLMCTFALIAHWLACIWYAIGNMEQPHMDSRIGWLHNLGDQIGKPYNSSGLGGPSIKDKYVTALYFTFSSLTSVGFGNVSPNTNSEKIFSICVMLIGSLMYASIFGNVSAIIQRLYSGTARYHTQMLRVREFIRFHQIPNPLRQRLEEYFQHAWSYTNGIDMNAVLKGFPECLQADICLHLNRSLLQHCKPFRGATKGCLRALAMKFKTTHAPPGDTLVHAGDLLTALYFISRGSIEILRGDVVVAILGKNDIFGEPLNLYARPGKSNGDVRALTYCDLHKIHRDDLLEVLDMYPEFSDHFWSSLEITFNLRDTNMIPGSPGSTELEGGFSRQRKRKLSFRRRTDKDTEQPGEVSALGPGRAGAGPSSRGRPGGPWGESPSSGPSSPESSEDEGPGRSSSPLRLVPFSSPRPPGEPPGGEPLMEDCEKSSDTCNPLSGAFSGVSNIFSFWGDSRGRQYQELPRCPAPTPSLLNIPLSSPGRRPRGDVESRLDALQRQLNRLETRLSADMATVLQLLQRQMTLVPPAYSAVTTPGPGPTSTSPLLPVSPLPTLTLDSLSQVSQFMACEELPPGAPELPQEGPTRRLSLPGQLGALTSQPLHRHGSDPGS

Turning to `Cc1ccc(-c2cc3nc(NC(C)(C)C)[nH]c(=O)c3s2)cc1` [Metabolite M1, 2-(tert-Butylamino)-6-(p-tolyl)thieno[3,2-d]pyrimidin-4(3H)-one], the values for the EC50 in data set [1] and in data set [3] were 0.283 ± 0.125 µM and 0.067 µM, respectively. Also, in data set [2], the “recrudescence of F32-ART5 versus F32-TEM (cross-resistance with artemisinin)” value is reported as “no cross-resistance with artemisinin”. Moreover, the CC50 at 72 h in data set [4] came out at 24 µM; in data set [5], 39.5 µM. Besides, the “binding toward the hERG channel” value at hERG channel is listed as “no affinity”.
